In the Kinase Knowledgebase extract (Sharma et al. 2016):

Legend:
Experiment in all cases: Enzyme Assay
PIK3CG (human) = PIK3CG (human) (UniProt P48736)
PIK3CD (Human) = PIK3CD (Human) (UniProt O00329)
PIK3CB (Human) = PIK3CB (Human) (UniProt P42338)
Sequence of PIK3CB (Human) (P42338 whole entry, looked up): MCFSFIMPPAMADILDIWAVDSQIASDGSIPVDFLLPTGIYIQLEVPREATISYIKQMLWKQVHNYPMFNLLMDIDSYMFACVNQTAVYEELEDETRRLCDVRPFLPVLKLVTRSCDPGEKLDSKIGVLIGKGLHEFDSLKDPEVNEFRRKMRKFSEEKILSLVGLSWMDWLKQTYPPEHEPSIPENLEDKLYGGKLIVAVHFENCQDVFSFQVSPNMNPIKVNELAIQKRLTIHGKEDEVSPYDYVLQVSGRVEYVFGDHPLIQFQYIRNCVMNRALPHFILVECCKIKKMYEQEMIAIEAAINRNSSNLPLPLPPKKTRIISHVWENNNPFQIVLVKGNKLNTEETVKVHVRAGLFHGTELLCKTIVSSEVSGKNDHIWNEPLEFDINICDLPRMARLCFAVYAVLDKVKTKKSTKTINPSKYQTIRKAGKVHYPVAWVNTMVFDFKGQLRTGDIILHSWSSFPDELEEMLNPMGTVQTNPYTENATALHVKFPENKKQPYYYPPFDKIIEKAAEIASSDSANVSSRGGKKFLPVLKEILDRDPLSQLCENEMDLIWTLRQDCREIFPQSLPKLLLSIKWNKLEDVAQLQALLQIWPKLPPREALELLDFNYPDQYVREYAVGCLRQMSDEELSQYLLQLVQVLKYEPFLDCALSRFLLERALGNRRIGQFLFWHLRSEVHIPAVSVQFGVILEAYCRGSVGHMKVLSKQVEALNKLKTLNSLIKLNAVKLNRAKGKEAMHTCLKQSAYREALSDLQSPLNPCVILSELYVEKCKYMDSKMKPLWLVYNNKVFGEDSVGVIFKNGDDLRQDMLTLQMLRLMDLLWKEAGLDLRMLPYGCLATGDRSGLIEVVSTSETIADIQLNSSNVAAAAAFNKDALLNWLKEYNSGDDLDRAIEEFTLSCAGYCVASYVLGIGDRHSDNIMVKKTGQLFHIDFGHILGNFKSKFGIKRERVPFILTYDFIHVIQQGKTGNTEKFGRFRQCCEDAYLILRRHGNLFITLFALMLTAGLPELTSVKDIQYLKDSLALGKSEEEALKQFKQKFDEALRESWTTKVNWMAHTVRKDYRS

Sequence of PIK3CG (human) (P48736 whole entry, looked up): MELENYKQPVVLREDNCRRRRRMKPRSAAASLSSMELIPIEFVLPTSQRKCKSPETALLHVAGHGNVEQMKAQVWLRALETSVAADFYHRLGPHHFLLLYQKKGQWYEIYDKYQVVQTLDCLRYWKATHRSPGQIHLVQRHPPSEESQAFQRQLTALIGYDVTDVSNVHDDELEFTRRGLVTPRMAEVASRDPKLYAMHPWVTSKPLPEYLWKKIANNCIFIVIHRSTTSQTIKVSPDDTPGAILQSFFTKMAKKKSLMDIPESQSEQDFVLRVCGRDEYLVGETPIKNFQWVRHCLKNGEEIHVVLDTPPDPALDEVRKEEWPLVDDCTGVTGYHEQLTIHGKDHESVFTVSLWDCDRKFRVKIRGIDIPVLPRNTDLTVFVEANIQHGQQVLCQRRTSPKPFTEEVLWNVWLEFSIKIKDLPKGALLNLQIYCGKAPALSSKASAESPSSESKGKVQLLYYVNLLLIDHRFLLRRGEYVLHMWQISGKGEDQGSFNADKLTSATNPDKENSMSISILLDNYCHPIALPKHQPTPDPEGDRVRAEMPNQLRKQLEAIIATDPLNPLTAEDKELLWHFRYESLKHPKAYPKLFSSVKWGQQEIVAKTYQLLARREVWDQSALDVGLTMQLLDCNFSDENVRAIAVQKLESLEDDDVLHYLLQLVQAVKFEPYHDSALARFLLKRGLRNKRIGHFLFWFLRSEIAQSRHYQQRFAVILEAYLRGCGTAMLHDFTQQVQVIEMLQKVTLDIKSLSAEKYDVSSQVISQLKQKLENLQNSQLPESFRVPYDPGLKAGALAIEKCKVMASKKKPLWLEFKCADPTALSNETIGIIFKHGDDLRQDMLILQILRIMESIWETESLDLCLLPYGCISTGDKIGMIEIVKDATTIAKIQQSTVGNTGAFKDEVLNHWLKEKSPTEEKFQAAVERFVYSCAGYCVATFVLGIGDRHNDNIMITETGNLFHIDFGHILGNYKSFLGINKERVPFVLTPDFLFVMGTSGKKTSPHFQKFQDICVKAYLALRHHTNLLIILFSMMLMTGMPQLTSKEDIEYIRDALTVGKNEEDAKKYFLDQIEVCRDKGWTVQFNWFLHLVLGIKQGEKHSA
Sequence of PIK3CD (Human) (O00329 whole entry, looked up): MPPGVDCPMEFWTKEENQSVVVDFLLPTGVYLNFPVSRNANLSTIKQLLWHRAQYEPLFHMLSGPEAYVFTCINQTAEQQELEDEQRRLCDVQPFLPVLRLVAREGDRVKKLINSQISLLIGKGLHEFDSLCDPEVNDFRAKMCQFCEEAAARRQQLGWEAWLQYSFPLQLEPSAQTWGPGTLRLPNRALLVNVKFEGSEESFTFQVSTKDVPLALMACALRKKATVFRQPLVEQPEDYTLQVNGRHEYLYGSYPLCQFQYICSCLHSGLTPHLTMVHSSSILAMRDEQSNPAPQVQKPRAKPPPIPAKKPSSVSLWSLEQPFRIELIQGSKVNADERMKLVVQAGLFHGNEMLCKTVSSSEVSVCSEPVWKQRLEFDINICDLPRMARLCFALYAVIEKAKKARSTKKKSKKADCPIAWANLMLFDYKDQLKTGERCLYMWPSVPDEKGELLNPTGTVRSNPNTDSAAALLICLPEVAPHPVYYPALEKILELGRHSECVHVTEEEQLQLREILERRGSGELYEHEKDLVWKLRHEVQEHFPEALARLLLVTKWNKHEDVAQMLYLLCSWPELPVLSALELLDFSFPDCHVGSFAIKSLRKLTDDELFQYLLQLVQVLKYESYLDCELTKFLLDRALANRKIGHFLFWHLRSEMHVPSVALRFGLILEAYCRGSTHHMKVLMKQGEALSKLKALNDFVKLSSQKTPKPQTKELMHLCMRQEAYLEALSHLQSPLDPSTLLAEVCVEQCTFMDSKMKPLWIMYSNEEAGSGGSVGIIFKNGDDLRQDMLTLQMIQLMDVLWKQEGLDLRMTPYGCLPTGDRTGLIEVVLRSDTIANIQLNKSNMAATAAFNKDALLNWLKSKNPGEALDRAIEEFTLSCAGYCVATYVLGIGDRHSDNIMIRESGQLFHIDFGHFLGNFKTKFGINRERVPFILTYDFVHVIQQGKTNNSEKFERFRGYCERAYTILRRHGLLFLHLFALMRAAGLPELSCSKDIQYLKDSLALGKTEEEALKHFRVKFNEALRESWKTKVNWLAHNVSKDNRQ

| IC50 (PIK3CG (human)) | IC50 (PIK3CD (Human)) | IC50 (PIK3CB (Human)) | Structure (SMILES) |
| --- | --- | --- | --- |
| 10 µM |  |  | CC(C)[C@H](Nc1nc(N)nc(N)c1Cl)c1nc2cccc(Cl)c2c(=O)n1-c1cc[nH]n1 |
| > 10 µM |  |  | Cc1c[nH]nc1-n1c([C@@H](NC2=NC(N)=NC3=NN=C(Br)C32)C2CC2)nc2cccc(Cl)c2c1=O (stereo partly drawn) |
| > 10 µM |  |  | Nc1nc(N)c(Cl)c(N[C@H](c2nc3cccc(Cl)c3c(=O)n2-c2cc[nH]n2)C2CCC2)n1 |
| > 10 µM | 0.009 µM | 0.004 µM | C[C@H](Nc1nc(N)nc(N)c1C#N)c1nc2c(C(F)F)cccc2c(=O)n1-c1cc[nH]n1 |
| > 10 µM |  |  | Nc1nc(N)c(Cl)c(N[C@H](c2nc3c(Cl)cc(F)cc3c(=O)n2-c2cc[nH]n2)C2CC2)n1 |
|  | 0.003 µM |  | CC[C@H](Nc1ncnc2[nH]cc(F)c12)c1nc2c(Cl)ccc(Cl)c2c(=O)n1-c1cc[nH]n1 |
|  |  | > 10 µM | C[C@H](Nc1nc(N)nc(C(F)F)c1Cl)c1nc2cc(F)cc(F)c2c(=O)n1-c1cc[nH]n1 |
| > 10 µM |  |  | CC(C)Cc1cc(-n2c([C@H](C)Nc3ncnc(N)c3C#N)nc3cccc(Cl)c3c2=O)n[nH]1 |
|  |  | > 10 µM | C[C@H](Nc1nc(N)nc(C(F)F)c1Cl)c1nc2c(F)c(F)ccc2c(=O)n1-c1cc[nH]n1 |
| 9.3 µM | 0.14 µM |  | C[C@H](Nc1nc(N)nc(N)c1C#N)c1nc2ccc(Cl)cc2c(=O)n1-c1cc[nH]n1 |
